According to patent US20190231761A1, “COMPOSITIONS AND METHODS FOR TARGETING FRUCTOSE ENZYMES AND TRANSPORTERS FOR THE TREATMENT OF CANCER” (Duke University, priority 2018, published 2019):

Assays:
HCT116 cells = experiment: cecum injection model, CRC liver metastasis, HCT116 cells with ALDOB knockdown; type: in vivo, NOD/SCID mice; details: cecum-injected HCT116 cells with ALDOB knockdown; control vectors 5 out of 5 mice
Procedure: (§1) Tumor-bearing mice were treated with 5-Fluorouracil (Sigma, St. Louis, Mo.) at a dose of 100 mg/kg, Oxaliplatin (Sigma, St. Louis, Mo.) at a dose of 6 mg/kg, 2-deoxyglucose (Sigma, St. Louis, Mo.) at a dose of 500 mg/kg or normal saline as vehicle control through intraperitoneal route twice a week. 2×10^6 cells carrying a luciferase/mCherry or luciferase/GFP vector were injected into the mice for cecum injection model and intrahepatic injection model. 5×10^5 cells were injected for intravenous injection. Luciferase signal was tracked in vivo using the IVIS luciferase imaging system 200 (Xenogen) for tumor development. Liver metastases were evaluated based on mCherry signals by an OV100 microscope (Olympus) after scarifying the mice.
(§2) To assess the contribution of ALDOB to fructose metabolism, ALDOB was knocked down in CRC cells using two shRNAs and validated the knockdown efficiencies by Western blot (FIG. 23). ALDOB lentiviral shRNA constructs were purchased from Sigma Mission shRNA dataset. The lentiviral vectors were co-transfected with helper plasmids into 293T cells. The lentiviral vectors were transfected into 293T cells. The viral supernatant was collected 48 hours after transfection and was used to infect CRC cells. […]

CRC119 cells = experiment: cecum injection model, CRC liver metastasis, CRC119 cells with ALDOB knockdown; type: in vivo, NOD/SCID mice; details: cecum-injected CRC119 cells with ALDOB knockdown; control vectors 5 out of 5 mice
Procedure: as §1, §2

CRC57 cells = experiment: cecum injection model, CRC liver metastasis, CRC57 cells with ALDOB knockdown; type: in vivo, NOD/SCID mice; details: cecum-injected CRC57 cells with ALDOB knockdown; control vectors 5 out of 5 mice
Procedure: as §1, §2

LV-HCT116 cells = experiment: intravenous injection of liver-derived HCT116 (LV-HCT116), tumors in the liver; type: in vivo, NOD/SCID mice; details: 5-Fluorouracil 100 mg/kg, Oxaliplatin 6 mg/kg, intraperitoneal twice a week; compared with ALDOB knockdown or fructose-restricted diet
From the text: FIG. 41A is representative IVIS luciferase in vivo images of mice with intravenous injection of liver-derived HCT116 cells with or without ALDOB knockdown. FIG. 41B are bright field and fluorescent (mCherry) images of livers of mice with intravenous injection of liver-derived HCT116 cells with or without ALDOB knockdown. FIG. 41C is a graph showing quantification of liver metastasis of mice with intravenous injection of liver-derived HCT116 cells with or without ALDOB knockdown, and show knockdown of ALDOB suppressed CRC liver lesions. FIG. 41D are representative IVIS luciferase in vivo images of mice with intravenous injection of liver-derived HCT116 with fructose diet. FIG. 41E are bright field and fluorescent (mCherry) images of livers of mice with intravenous injection of liver-derived HCT116 with fructose diet. FIG. 41F is a graph of quantification of liver metastasis of mice with intravenous injection of liver-derived HCT116 with fructose diet that show mice fed with fructose-restricted diet suppressed liver lesions. […] FIG. 41I is a graph showing quantification of liver lesions. […] Error bars denote SEM of 3 mice per group. **, p<0.01; ***, p<0.001. p-value was calculated based on one-way ANOVA. […]

CRC cells = experiment: KHK knockdown in CRC cells transplanted into mouse cecum, liver metastasis; type: in vivo; details: IVIS luciferase images, quantification of liver metastasis
Procedure: FIG. 42A-42B illustrates KHK knockdown suppresses liver metastasis. FIG. 42A is a Western blot showing KHK knockdown efficiency. FIG. 42B are representative IVIS luciferase in vivo images, bright field and fluorescent images of livers, and quantification of liver metastasis. Error bars denote SEM of 5 mice per group. p-values were calculated based on one-way ANOVA. ***, p<0.001.
To determine if silencing ketohexokinase (KHK) can suppress liver metastases, KHK was knocked down using shRNA nucleic acid sequence SEQ ID NO:4 (FIG. 42A) in CRC cells and the cells were transplanted into the mouse cecum using the methods described in Example 6 with respect to ALDOB knockdown.

Compound | mice that developed detectable liver metastases (HCT116 cells) | mice that developed detectable liver metastases (CRC119 cells) | mice that developed detectable liver metastases (CRC57 cells) | benefit in terms of tumor suppression or survival (LV-HCT116 cells) | metastatic CRC growth in the liver (CRC cells)
shRNA1: shRNA against human ALDOB, Sigma Mission lentiviral construct (CCGGCTCAGAAATTGCCCAGAGCATCTCGAGATGCTCTGGGCAATTTCTGAGTTTTTG) | 2 out of 5 mice | 2 out of 5 mice | 2 out of 5 mice | – | –
O=c1[nH]cc(F)c(=O)[nH]1 [5-Fluorouracil] | – | – | – | less benefit | –
SEQ ID NO:4: shRNA against human fructokinase (KHK) (CCGGCCTAAGGAGGACTCGGAGATACTCGAGTATCTCCGAGTCCTCCTTAGGTTTTTG) | – | – | – | – | significantly suppressed
O=C1[O][Pt]2([NH][C@@H]3CCCC[C@H]3[NH]2)[O]C1=O [Oxaliplatin] | – | – | – | less benefit | –
shRNA2: shRNA against human ALDOB, Sigma Mission lentiviral construct (CCGGGTGGGAATCAAGTTAGACCAACTCGAGTTGGTCTAACTTGATTCCCACTTTTTG) | 2 out of 5 mice | 1 out of 5 mice | 2 out of 5 mice | – | –
